pIC50: −log10 of the molar value. Where two headings read alike, the source gives them in different places.
Tests used:
CDK6/CyclinD3 = target: T1, CDK6/CyclinD3 (Homo sapiens, UniProt Q00534); assay: Assay for inhibition of CDK6/CyclinD3 (Caliper microfluidic kinase assay); assay type: biochemical
T1 construct: purchased Carna 04-107
Experimental: The CDK6 enzyme assay for IC50 determination was performed as follows. Microfluidic kinase detection technology (Caliper) was used to monitor the phosphorylation of peptide substrate by CDK6/CyclinD3. The total reaction volume is 15 μL containing buffer A (100 mM HEPES (pH 7.5), 0.1% BSA, 0.01% Triton X-100, 1 mM DTT, 10 mM MgCl2, 10 μM Sodium Orthovanadate, 10 μM Beta-Glycerophosphate), 300 μM ATP, 2 nM CDK6/CyclinD3 (Carna, 04-107), 1 μM FL-34 (5-FAM-[…]), and the test compound at appropriate dilutions in DMSO. All components were added to the 384-well plate (Corning, 4514), and incubated at Room Temperature for 3 hours. The reaction was terminated by addition of 15 μL Stop Buffer (180 mM HEPES (pH 7.5), 20 mM EDTA, Coating-3 reagent (PerkinElmer, 760050)). The plate was then loaded on Caliper EZ Reader (EZ Reader II, PerkinElmer, HD-4HYSG2772), and the reaction mixtures including substrate and product were sipped into the microfluidic chip for separation and detection. The IC50 values of the test compound were determined by fitting the inhibition curves by 4 parameter sigmoidal dose-response model using the Xlfit5/GraphPad Prism 5 software.

CDK4/CyclinD1 = target: T2, CDK4/CyclinD1 (Homo sapiens, UniProt P11802); assay: Assay for inhibition of CDK4/CyclinD1 (Caliper microfluidic kinase assay); assay type: biochemical
T2 construct: purchased Thermofisher PR8064A
Outline: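 IC50 was obtained by 4-parameter sigmoidal fitting after 1 nM CDK4/CyclinD1, 200 μM ATP and 1 μM FL-34 substrate reacted for 3 h at room temperature (pH 7.5 HEPES, 10 mM MgCl2). After EDTA quench, substrate and product were separated and detected on a Caliper microfluidic chip.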

CDK2/CyclinE1 = target: T3, CDK2/CyclinE1 (Homo sapiens, UniProt P24941); assay: Assay for inhibition of CDK2/CyclinE1 (Caliper microfluidic kinase assay); assay type: biochemical
T3 construct: purchased SignalChem C29-18G
Outline: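 IC50 came from 4-parameter fits of substrate-to-product conversion, separated on a Caliper chip after an EDTA stop. Reactions ran 3 hours at room temperature with 100 μM ATP, 5 μM fluorescent FL-18 peptide and 5 nM enzyme in 100 mM HEPES pH 7.5, 10 mM MgCl2.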

T47D breast cancer cells = assay: Anti-proliferation assay in T47D cell (Cyquant, day 6); assay type: cell-based, human; details: Homo sapiens, T47D, anti-proliferation, T47D cells; read-out: T47D IC50
Description: T47D is a human breast cancer cell line commonly used in biomedical research involving the hormonal expression of cancer cells. T47D cells are distinct from other human breast cancer cells in that their progesterone receptors (PR) are not regulated by estradiol, a hormone that is abundant within the cells themselves. T47D cells have been employed in studies of the effects of progesterone on breast cancer and the corresponding transcriptional regulation caused by introduced drugs. The cells have been noted to be extremely resistant to estrogens and antiestrogens.
T47D breast cancer cells from American Type Culture Collection (ATCC, HTB-133) were plated at 3000 cells/well in 96-well plates, and were incubated in RPMI 1640 medium (Gibco, 31800105) with 10% Fetal Bovine Serum (FBS, Biowest, FB-1058) at 37° C., 5% CO2. After overnight incubation, baseline values were measured of the samples from one plate using Cyquant reagent (Invitrogen, C35011) following manufacturer's recommendations. Cells were incubated with the detection reagent for 1 hour at 37° C., and then the fluorescence was measured with excitation at 485 nm and emission at 535 nm using Spectra Max M5 (Molecular Devices, HD-4HYSG3196). Other plates were dosed with compounds at a ten-point dose concentration from 10 μM to 0.51 nM in a 3-fold dilution scheme. On day 6 after compound addition, Cyquant reagent was added and the fluorescence was measured using Spectra Max M5. The IC50 values of the test compound's anti-proliferation activity were determined from the baseline subtracted viability readout curve using Xlfit5/GraphPad Prism 5 software.

[1] = CDK2/CyclinE1, 100 μM ATP, read-out: CDK2 IC50
[2] = CDK2/CyclinE1, read-out: CDK2 IC50

T2 sequence (P11802 whole entry): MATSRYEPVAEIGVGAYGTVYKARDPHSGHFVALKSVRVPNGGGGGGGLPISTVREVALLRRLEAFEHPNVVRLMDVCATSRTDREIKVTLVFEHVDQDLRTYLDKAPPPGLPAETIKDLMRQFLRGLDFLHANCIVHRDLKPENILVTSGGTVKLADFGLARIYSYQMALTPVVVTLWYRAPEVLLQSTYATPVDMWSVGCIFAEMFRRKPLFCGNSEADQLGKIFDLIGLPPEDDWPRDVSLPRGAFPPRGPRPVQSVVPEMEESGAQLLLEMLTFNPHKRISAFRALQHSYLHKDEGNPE
T2 sequence (P24385 whole entry partner): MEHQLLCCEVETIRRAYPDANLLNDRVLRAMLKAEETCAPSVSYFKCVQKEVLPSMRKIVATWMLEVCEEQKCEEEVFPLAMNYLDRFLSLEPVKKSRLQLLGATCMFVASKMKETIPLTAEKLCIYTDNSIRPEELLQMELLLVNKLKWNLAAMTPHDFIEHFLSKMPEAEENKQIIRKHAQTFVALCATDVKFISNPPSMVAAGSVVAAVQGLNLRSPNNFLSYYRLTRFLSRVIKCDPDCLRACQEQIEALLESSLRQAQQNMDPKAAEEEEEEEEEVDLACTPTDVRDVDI
T1 sequence (Q00534 whole entry): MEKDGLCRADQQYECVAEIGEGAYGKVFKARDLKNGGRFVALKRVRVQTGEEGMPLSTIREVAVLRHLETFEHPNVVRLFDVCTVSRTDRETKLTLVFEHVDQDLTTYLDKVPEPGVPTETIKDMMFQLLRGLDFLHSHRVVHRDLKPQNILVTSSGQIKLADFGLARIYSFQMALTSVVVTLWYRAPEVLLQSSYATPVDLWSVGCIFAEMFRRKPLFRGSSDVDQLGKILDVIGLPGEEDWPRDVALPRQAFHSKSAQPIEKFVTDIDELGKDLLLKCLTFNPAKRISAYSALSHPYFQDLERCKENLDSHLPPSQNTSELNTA
T1 sequence (P30281 whole entry partner): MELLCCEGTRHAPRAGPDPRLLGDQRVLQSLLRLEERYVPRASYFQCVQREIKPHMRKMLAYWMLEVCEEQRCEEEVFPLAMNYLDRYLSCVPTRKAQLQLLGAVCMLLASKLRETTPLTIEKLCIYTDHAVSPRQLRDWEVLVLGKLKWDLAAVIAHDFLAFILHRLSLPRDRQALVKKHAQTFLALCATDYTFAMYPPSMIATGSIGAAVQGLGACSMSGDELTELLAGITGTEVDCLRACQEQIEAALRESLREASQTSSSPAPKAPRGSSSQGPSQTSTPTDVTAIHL

Row | SMILES | pIC50 (CDK6/CyclinD3; CDK6/CyclinD3, 300 μM ATP) | pIC50 (CDK2/CyclinE1; [1]) | pIC50 (CDK4/CyclinD1; CDK4/CyclinD1, 200 μM ATP) | other results
1 | C=CC(=O)Nc1cc(Nc2ncc(F)c(-c3ccn4nc(C)c(C)c4c3)n2)c(OC)cc1N(C)CCN(C)C [Compound 10 disclosed in CN109503573A, reference compound] | – | – | – | pIC50 (CDK6/CyclinD3; comparative compound): < 5.00; pIC50 (CDK4/CyclinD1; comparative compound): < 5.00
2 | CC(C)c1cnn2ccc(-c3ccnc(Nc4ccc(N5CCC(N(C)C)CC5=O)cn4)n3)cc12 (stereo not shown) [Synthetic Example 16] | > 8.00 | 7.00 to 8.00 | > 8.00 | –
3 | CCN1CCN(Cc2ccc(Nc3ncc(F)c(-c4cc5c(C(C)C)n(C)nc5cn4)n3)nc2)CC1 [Synthetic Example 58] | < 6.00 | – | 6.00 to 7.00 | pIC50 (T47D breast cancer cells): < 6.00
4 | CCN1CCN(Cc2ccc(Nc3ncc(F)c(-c4cn5c(C(C)C)cnc5c(OC)n4)n3)nc2)CC1 [Synthetic Example 60] | 6.00 to 7.00 | – | 7.00 to 8.00 | –
5 | COc1nc(-c2nc(Nc3ccc(N4CCN(CCS(C)(=O)=O)CC4=O)cn3)ncc2F)cc2c1nc(C)n2C(C)C [Synthetic Example 121] | 7.00 to 8.00 | < 6.00 | > 8.00 | –
6 | COc1nc(-c2nc(Nc3ccc(N4CCN(C5CNC5)CC4=O)cn3)ncc2F)cc2c1nc(C)n2C(C)C [Synthetic Example 138] | 7.00 to 8.00 | 6.00 to 7.00 | > 8.00 | –
7 | CC(C)N1CCN(c2ccc(Nc3nccc(-c4cc5c(ncn5C(C)C)c(F)n4)n3)nc2)CC1 [Synthetic Example 287] | 7.00 to 8.00 | 6.00 to 7.00 | > 8.00 | –
8 | CC(C)c1cnn2ccc(-c3nc(Nc4ccc(N5CCOCC5)cn4)ncc3F)cc12 [compound 13] | 7.00 to 8.00 | – | 7.00 to 8.00 | pIC50 (T47D breast cancer cells): 6.30 to 7.00
9 | O=C1COCCN1c1ccc(Nc2ncc(F)c(-c3ccn4ncc(C5=CCOCC5)c4c3)n2)nc1 [compound 17] | 6.00 to 7.00 | – | 7.00 to 8.00 | –
10 | O=C1COCCN1c1ccc(Nc2ncc(F)c(-c3ccn4ncc(C5CCOCC5)c4c3)n2)nc1 [compound 18] | 6.00 to 7.00 | – | 7.00 to 8.00 | pIC50 (T47D breast cancer cells): 6.00 to 6.30
11 | C=C(C)c1cnn2ccc(-c3nc(Nc4ccc(CN5CCN(CC)CC5)cn4)ncc3F)cc12 [compound 19] | 6.00 to 7.00 | – | 7.00 to 8.00 | –
12 | CCN1CCN(Cc2ccc(Nc3ncc(F)c(-c4ccn5ncc(Br)c5c4)n3)nc2)CC1 [compound 20] | < 6.00 | – | 6.00 to 7.00 | –
13 | CCN1CCN(Cc2ccc(Nc3ncc(F)c(-c4ccn5ncc(C(C)C)c5c4)n3)nc2)CC1 [compound 22] | 7.00 to 8.00 | – | > 8.00 | –
14 | CC(C)c1cnn2ccc(-c3nc(Nc4ccc(N5CCOCC5=O)c(C(F)(F)F)c4)ncc3F)cc12 [compound 23] | 7.00 to 8.00 | – | 7.00 to 8.00 | pIC50 (T47D breast cancer cells): 6.00 to 6.30
15 | CCN1CCN(Cc2cccc(Nc3ncc(F)c(-c4ccn5ncc(C(C)C)c5c4)n3)n2)CC1 [compound 24] | < 6.00 | – | 6.00 to 7.00 | –
16 | CCn1cnc2c(OC)nc(-c3nc(Nc4ccc(N5CCOCC5=O)cn4)ncc3F)cc21 [compound 84] | – | – | – | pIC50 (CDK6/CyclinD3; CDK6/CyclinD3): 6.00 to 7.00; pIC50 (CDK2/CyclinE1; [2]): < 6.00; pIC50 (CDK4/CyclinD1; CDK4/CyclinD1): 7.00 to 8.00

Row | SMILES | pIC50 (CDK6/CyclinD3; CDK6/CyclinD3, 300 μM ATP) | pIC50 (CDK2/CyclinE1; [1]) | pIC50 (CDK4/CyclinD1; CDK4/CyclinD1, 200 μM ATP) | other results
17 | CCN1CCN(Cc2ccc(Nc3ncc(F)c(-c4cc5c(ncn5C(C)C)c(OC)n4)n3)nc2)CC1 [compound 87] | – | – | – | pIC50 (T47D breast cancer cells): 6.30 to 7.00; pIC50 (CDK6/CyclinD3; CDK6/CyclinD3): 7.00 to 8.00; pIC50 (CDK4/CyclinD1; CDK4/CyclinD1): > 8.00
18 | COc1nc(-c2nc(Nc3ccc(N4CCOCC4=O)cc3F)ncc2F)cc2c1nc(C)n2C(C)C [compound 92] | – | – | – | pIC50 (CDK6/CyclinD3; CDK6/CyclinD3): 7.00 to 8.00; pIC50 (CDK2/CyclinE1; [2]): 7.00 to 8.00; pIC50 (CDK4/CyclinD1; CDK4/CyclinD1): > 8.00
19 | CCN1CCN(Cc2ccc(Nc3ncc(F)c(-c4cc5c(nc(C)n5C(C)C)c(OC)n4)n3)nc2)CC1 [compound 95] | – | – | – | pIC50 (CDK6/CyclinD3; CDK6/CyclinD3): 7.00 to 8.00; pIC50 (CDK2/CyclinE1; [2]): < 6.00; pIC50 (CDK4/CyclinD1; CDK4/CyclinD1): 7.00 to 8.00
20 | COc1nc(-c2nc(Nc3ccc(CN4CCN5CCCC5C4)cn3)ncc2F)cc2c1nc(C)n2C(C)C (stereo not shown) [compound 101] | – | – | – | pIC50 (CDK6/CyclinD3; CDK6/CyclinD3): 7.00 to 8.00; pIC50 (CDK4/CyclinD1; CDK4/CyclinD1): 7.00 to 8.00
21 | COc1nc(-c2nc(NC3CCN(S(C)(=O)=O)CC3)ncc2F)cc2c1nc(C)n2C(C)C [compound 102] | – | – | – | pIC50 (CDK6/CyclinD3; CDK6/CyclinD3): 6.00 to 7.00; pIC50 (CDK2/CyclinE1; [2]): 6.00 to 7.00; pIC50 (CDK4/CyclinD1; CDK4/CyclinD1): 7.00 to 8.00
22 | COc1nc(-c2nc(Nc3ccc(N4CCN(C5CCNCC5)CC4=O)cn3)ncc2F)cc2c1nc(C)n2C(C)C [compound 139] | > 8.00 | < 6.00 | > 8.00 | –
23 | Cc1nn2ccc(-c3ccnc(Nc4ccc(N5CCC(N(C)C)CC5=O)cc4)n3)cc2c1C(C)C (stereo not shown) [compound 177] | > 8.00 | > 8.00 | > 8.00 | –
24 | CC(C)c1cnn2ccc(-c3ccnc(Nc4ccc5c(c4)CS(=O)(=O)C5)n3)cc12 [compound 179] | > 8.00 | > 8.00 | > 8.00 | –
25 | CC(C)c1cnn2ccc(-c3ccnc(Nc4ccc(N5CCC(O)CC5=O)cn4)n3)cc12 (stereo not shown) [compound 183] | 7.00 to 8.00 | 7.00 to 8.00 | 7.00 to 8.00 | –
26 | CNC1CCN(C(=O)c2ccc(Nc3nccc(-c4ccn5ncc(C(C)C)c5c4)n3)cc2)C1 (stereo not shown) [compound 189] | > 8.00 | – | > 8.00 | pIC50 (CDK2/CyclinE1): > 8.00
27 | CC(C)c1cnn2ccc(-c3ccnc(Nc4ccc(N5CCC(C)(N)CC5=O)cc4F)n3)cc12 (stereo not shown) [compound 213] | 7.00 to 8.00 | > 8.00 | > 8.00 | –
28 | CC(C)c1cnn2ccc(-c3ccnc(Nc4ccc(N5CCNCC5=O)cc4F)n3)cc12 [compound 224] | 7.00 to 8.00 | > 8.00 | > 8.00 | –
29 | CC(C)(C)c1cnn2ccc(-c3ccnc(Nc4ccc(N5CCNCC5=O)cc4F)n3)cc12 [compound 225] | 7.00 to 8.00 | > 8.00 | > 8.00 | –
30 | Cc1nc2c(F)nc(-c3ccnc(Nc4ccc(S(N)(=O)=O)cc4)n3)cc2n1C(C)C [compound 288] | 7.00 to 8.00 | > 8.00 | 7.00 to 8.00 | –
31 | CC(C)n1cnc2c(F)nc(-c3ccnc(Nc4ccc(N5CCC(C)(N)CC5=O)cc4F)n3)cc21 (stereo not shown) [compound 292] | > 8.00 | > 8.00 | > 8.00 | –
32 | CC(C)n1cnc2c(F)nc(-c3ccnc(Nc4ccc(S(N)(=O)=O)cc4)n3)cc21 [compound 297] | 7.00 to 8.00 | > 8.00 | > 8.00 | –

From patent publication US20220296595A1, “CDK INHIBITORS” (QILU REGOR THERAPEUTICS INC., priority 2019, published 2022)
